Measurements taken from US5672582A, “Thrombin inhibitors” (Merck & Co., Inc., priority 1994, dated 1997).
Where two headings read alike, the source gives them in different places.

What was measured:
Assay type in all cases: biochemical
human α-thrombin = human α-thrombin (Homo sapiens, UniProt P00734); assay: Proteinase inhibition assay, human α-thrombin
Procedure: (§1) Assays of human α-thrombin and bovine trypsin were performed at 25° C. in 0.05M TRIS buffer pH 7.4, 0.15M NaCl, 0.1% PEG. Trypsin assays also contained 1 mM CaCl2.
"Sar" is the three letter abbreviation for the amino acid sarcosine (N-methylglycine). p-Nitroanilide substrate concentration was determined from measurements of absorbance at 342 nm using an extinction coefficient of 8270 cm^-1 M^-1.
Concentrations of stock solutions of Z-GPR-afc were determined from measurements of absorbance at 380 nm (extinction coefficient=12600 cm^-1 M^-1) of the 7-amino-4-trifluoromethyl coumarin produced upon complete hydrolysis of an aliquot of the stock solution by thrombin.
(§2) Times required to achieve equilibration between enzyme and inhibitor were determined in control experiments. Initial velocities of product formation in the absence (Vo) or presence of inhibitor (Vi) were measured. Assuming competitive inhibition, and that unity is negligible compared Km /[S], [S]/e, and [I]/e (where [S], [I], and e respectively represent the total concentrations, of substrate, inhibitor and enzyme), the equilibrium constant (Ki) for dissociation of the inhibitor from the enzyme can be obtained from the dependence of Vo /Vi on [I] shown in equation 1.
The constants were determined at pH 7.4 in buffer containing 0.05M Tris, 0.15M NaCl, 0.1% PEG-8000 at room temperature.

bovine trypsin = target: T1, bovine trypsin (Bos taurus, UniProt P00760); assay: Proteinase inhibition assay, bovine trypsin
T1 sequence (P00760 24-246): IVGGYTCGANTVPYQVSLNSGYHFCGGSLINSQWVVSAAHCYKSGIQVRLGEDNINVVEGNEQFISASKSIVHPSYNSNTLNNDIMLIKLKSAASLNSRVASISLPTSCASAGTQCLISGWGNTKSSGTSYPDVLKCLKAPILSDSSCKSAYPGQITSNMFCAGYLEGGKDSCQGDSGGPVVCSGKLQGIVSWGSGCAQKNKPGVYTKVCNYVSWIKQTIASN
Procedure: as §1
In assays wherein rates of hydrolysis of a p-nitroanilide (pna) substrate were determined, a Thermomax 96-well plate reader was used was used to measure (at 405 nm) the time dependent appearance of p-nitroaniline. sar-PR-pna was used to assay human α-thrombin (Km =125 μM) and bovine trypsin (Km =125 μM). "Sar" is the three letter abbreviation for the amino acid sarcosine (N-methylglycine). p-Nitroanilide substrate concentration was determined from measurements of absorbance at 342 nm using an extinction coefficient of 8270 cm^-1 M^-1.
as §2
Using the assays described above, the following additional embodiments of the invention were evaluated and shown to be selective for inhibiting thrombin. The constants were determined at pH 7.4 in buffer containing 0.05M Tris, 0.15M NaCl, 0.1% PEG-8000 at room temperature.

Factor Xa (fXa) = target: T2, Factor Xa (fXa) (Homo sapiens, UniProt P00742); assay: Chromogenic assay, Factor Xa; conditions: Table 3
T2 construct: Factor Xa (fXa), plasma kallikrein (p-Kal), plasmin (Pl)

[1] = target: T3, plasma kallikrein (p-Kal) (Homo sapiens, UniProt P03952); assay: Chromogenic assay, plasma kallikrein; conditions: Table 3
T3 construct: plasma kallikrein (p-Kal)

plasmin (Pl) = plasmin (Pl) (Homo sapiens, UniProt P00747); assay: Chromogenic assay, plasmin; conditions: Table 3
[2] = target: tissue plasminogen activator (t-PA) (Homo sapiens, UniProt P00750); assay: Chromogenic assay, tissue plasminogen activator; conditions: Table 3, read-out: Ki (nM) tPA
[3] = target: activated protein C (APC) (Homo sapiens, UniProt P04070); assay: Chromogenic assay, activated protein C; conditions: Table 3
[4] = Table 2, pH 7.4, 0.05M Tris, 0.15M NaCl, 0.1% PEG-8000, room temperature, read-out: Ki (nM) Thrombin
[5] = Table 2, pH 7.4, 0.05M Tris, 0.15M NaCl, 0.1% PEG-8000, room temperature, read-out: Ki (nM) Trypsin

T2 sequence (P00742 235-488 limits assumed): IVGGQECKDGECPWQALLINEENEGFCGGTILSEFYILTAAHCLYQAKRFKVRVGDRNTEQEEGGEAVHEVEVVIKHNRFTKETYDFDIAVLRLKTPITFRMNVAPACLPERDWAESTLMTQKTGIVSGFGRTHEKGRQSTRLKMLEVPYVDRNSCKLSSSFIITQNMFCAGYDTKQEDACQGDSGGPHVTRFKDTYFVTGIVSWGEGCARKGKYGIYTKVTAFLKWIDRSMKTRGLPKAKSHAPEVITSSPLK
T2 sequence (P00742 41-179 limits assumed): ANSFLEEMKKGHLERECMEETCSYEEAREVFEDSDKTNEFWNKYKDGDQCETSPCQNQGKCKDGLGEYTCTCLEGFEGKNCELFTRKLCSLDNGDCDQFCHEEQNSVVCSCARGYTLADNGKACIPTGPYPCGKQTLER
tissue plasminogen activator (t-PA), sequence (P00750 36-562, species assumed): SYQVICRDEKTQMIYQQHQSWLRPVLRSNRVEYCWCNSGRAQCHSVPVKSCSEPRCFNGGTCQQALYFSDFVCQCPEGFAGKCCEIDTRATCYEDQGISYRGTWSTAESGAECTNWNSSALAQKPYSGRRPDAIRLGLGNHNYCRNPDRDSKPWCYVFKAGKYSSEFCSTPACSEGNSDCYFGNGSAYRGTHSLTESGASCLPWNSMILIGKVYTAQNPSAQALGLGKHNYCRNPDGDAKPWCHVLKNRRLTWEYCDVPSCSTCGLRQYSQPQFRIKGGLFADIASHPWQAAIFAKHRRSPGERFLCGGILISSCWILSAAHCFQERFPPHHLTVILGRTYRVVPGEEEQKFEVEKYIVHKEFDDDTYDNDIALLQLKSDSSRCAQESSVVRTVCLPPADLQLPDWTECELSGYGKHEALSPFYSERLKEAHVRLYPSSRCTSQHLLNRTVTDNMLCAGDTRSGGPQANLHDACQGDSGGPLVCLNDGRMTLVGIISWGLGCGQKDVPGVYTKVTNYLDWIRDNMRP
activated protein C (APC), sequence (P04070 212-461 limits assumed): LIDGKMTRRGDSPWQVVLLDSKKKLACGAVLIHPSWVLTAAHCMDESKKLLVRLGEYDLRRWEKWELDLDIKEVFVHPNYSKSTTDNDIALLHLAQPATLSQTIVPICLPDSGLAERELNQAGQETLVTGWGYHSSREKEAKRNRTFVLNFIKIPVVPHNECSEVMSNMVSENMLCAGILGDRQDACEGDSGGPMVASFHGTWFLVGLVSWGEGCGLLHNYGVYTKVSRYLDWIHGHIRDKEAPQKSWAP
activated protein C (APC), sequence (P04070 43-197 limits assumed): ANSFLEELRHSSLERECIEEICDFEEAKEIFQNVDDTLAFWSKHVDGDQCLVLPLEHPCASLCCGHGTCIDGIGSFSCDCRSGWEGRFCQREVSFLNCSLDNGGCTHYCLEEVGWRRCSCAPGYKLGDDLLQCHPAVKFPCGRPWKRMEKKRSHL
plasmin (Pl), sequence (P00747 581-810 limits assumed, species assumed): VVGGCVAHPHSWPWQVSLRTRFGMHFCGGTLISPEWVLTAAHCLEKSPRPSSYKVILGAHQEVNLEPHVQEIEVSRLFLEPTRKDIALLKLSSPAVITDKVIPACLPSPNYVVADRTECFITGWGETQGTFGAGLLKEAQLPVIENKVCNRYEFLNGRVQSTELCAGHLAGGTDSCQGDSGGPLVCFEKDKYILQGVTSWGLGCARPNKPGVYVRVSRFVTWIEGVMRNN
plasmin (Pl), sequence (P00747 97-580 limits assumed, species assumed): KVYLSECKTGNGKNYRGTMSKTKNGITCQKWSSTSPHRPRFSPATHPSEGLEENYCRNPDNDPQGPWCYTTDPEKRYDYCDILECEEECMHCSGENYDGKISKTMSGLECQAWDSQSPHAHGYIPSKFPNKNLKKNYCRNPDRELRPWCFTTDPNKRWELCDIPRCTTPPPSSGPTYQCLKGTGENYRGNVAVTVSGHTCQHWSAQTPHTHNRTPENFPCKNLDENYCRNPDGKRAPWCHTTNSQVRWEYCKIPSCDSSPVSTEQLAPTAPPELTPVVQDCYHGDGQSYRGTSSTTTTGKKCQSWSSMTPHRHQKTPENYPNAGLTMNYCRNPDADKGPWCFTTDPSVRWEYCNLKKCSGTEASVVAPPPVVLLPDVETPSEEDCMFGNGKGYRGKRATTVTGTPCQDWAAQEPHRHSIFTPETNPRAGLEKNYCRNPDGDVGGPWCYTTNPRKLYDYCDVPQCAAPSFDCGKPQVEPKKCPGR
T3 sequence (P03952 391-638 limits assumed, species assumed): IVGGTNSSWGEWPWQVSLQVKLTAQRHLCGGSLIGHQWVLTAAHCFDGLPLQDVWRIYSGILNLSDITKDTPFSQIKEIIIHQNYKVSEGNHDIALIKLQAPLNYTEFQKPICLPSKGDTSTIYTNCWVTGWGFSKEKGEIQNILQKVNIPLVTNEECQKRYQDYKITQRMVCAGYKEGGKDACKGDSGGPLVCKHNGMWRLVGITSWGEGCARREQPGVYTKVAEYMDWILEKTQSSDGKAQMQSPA
T3 sequence (P03952 20-390 limits assumed, species assumed): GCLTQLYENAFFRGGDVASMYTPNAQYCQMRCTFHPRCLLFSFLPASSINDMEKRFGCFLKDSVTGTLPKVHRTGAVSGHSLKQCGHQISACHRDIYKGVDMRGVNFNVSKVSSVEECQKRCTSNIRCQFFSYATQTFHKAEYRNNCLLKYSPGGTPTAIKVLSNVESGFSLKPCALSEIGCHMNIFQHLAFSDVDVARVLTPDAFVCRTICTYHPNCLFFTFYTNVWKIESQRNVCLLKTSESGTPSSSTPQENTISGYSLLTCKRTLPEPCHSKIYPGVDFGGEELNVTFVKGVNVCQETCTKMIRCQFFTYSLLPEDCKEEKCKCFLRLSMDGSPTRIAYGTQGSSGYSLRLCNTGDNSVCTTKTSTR

Row | Ki (human α-thrombin; [4]) [nM] | Ki (bovine trypsin; [5]) [nM] | Ki (Factor Xa (fXa)) [nM] | Ki [1] [nM] | Ki (plasmin (Pl)) [nM] | Ki [2] [nM] | Ki [3] [nM] | Ki (human α-thrombin; Table 1, 25° C., 0.05M TRIS pH 7.4, 0.15M NaCl, 0.1% PEG, read-out: Ki (μM) Thrombin) [nM] | Ratio (human α-thrombin; Table 1, Ki trypsin / Ki thrombin) | Ki (bovine trypsin; Table 1, 25° C., 0.05M TRIS pH 7.4, 0.15M NaCl, 0.1% PEG, 1 mM CaCl2, read-out: Ki (μM) Trypsin) [nM] | SMILES
1 | 0.6 | 120 | > 10000 | > 10000 | > 10000 | > 10000 | > 10000 | – | – | – | CNC(Cc1ccccc1)C(=O)N1CCCC1C(=O)NC(C(=O)C(=O)NCc1ccccc1)C1CCC(N)CC1 (mixture of isomers) [xvi]
2 | 0.07 | 310 | 3000 | > 10000 | 6000 | > 10000 | > 10000 | – | – | – | CNC(=O)C(=O)C(NC(=O)C1CCCN1C(=O)C(CC1CCCCC1)NC)C1CCC(N)CC1 (stereo not drawn) [x]
3 | 2.2 | 4000 | > 10000 | > 10000 | > 10000 | > 10000 | > 10000 | – | – | – | CNC(=O)C(=O)C(NC(=O)C1CCCN1C(=O)CCC1CCCCC1)C1CCC(N)CC1 (stereo not drawn) [xiii]

Continued, molecule first:

Row | SMILES | Ki (human α-thrombin; [4]) [nM] | Ki (bovine trypsin; [5]) [nM] | Ki (Factor Xa (fXa)) [nM] | Ki [1] [nM] | Ki (plasmin (Pl)) [nM] | Ki [2] [nM] | Ki [3] [nM] | Ki (human α-thrombin; Table 1, 25° C., 0.05M TRIS pH 7.4, 0.15M NaCl, 0.1% PEG, read-out: Ki (μM) Thrombin) [nM] | Ratio (human α-thrombin; Table 1, Ki trypsin / Ki thrombin) | Ki (bovine trypsin; Table 1, 25° C., 0.05M TRIS pH 7.4, 0.15M NaCl, 0.1% PEG, 1 mM CaCl2, read-out: Ki (μM) Trypsin) [nM]
4 | CNC(=O)C(=O)C(CC1CCC(N)CC1)NC(=O)C1CCCN1C(=O)C(Cc1ccccc1)NC (stereo not drawn) [vi] | – | – | – | – | – | – | – | 52 | 28 | 1440
5 | CNC(Cc1ccccc1)C(=O)N1CCCC1C(=O)NC(C(=O)C(=O)N1CCC1)C1CCC(N)CC1 (mixture of isomers) [xviii] | 0.04 | 760 | > 10000 | > 10000 | > 10000 | > 10000 | > 10000 | – | – | –
6 | CNC(=O)C(=O)C(NC(=O)C1CCCN1C(=O)C(Cc1ccc2ccccc2c1)NC)C1CCC(N)CC1 (stereo not drawn) [xiv] | 0.09 | 2100 | 9000 | > 10000 | > 10000 | > 10000 | > 10000 | – | – | –
7 | CNC(=O)C(=O)C(NC(=O)C1CCCN1C(=O)CCc1ccccc1)C1CCC(N)CC1 (mixture of isomers) [ix] | 4 | > 10000 | > 10000 | > 10000 | > 10000 | > 10000 | > 10000 | – | – | –
